≈ marks a conversion by molar mass, not a printed value. Where two headings read alike, the source gives them in different places.
Experiments:
[1] = test system: promastigote phase of Leishmania; conditions: 96 hours of contact, MTT marker; values of FIG. 1 not given
[2] = test system: mouse microphages; conditions: times less on mouse microphages than on the parasite
Protocol: (§3) A tetrazolium salt (MTT) has been used as marker. In the case of L. mexicana, the molecules were evaluated relative to the intracellular amastigote stage (macrophages of Balb/c), the stage encountered in patients.

[3] = test system: L. major; assay: in vivo anti-Leishmania activity, cutaneous model (L. major in Balb/c mice); conditions: MF 29 10 mg/kg intra-peritoneal once per day for 10 days, Glucantime subcutaneous, same scheme
Protocol: (§1) In promastigotes of L. major (2×106) or of L. infantum (10^7) in the stationary phase are inoculated respectively by the subcutaneous route in the rear right paw or by intravenous route in the caudal vein. […] Meglumine antimoniate (Glucantime-Speca™ Rhone-Poulenc, Paris, France) containing 85 mg of pentavalent antimony per ml is administered by subcutaneous route according to the same therapeutic scheme. The control group receives the solvent of MF 29 and of the saline solution at 0.9% by intra-peritoneal route.
(§2) For the cutaneous model, the efficacy of the treatment is evaluated by measuring the edema at the infected paw with the help of an electronic sliding foot (ref. 56371; Polylabo; Strasburg, France), and reported relative to the thickness of the counter-lateral paw. The mice are sacrificed […] after infection. A fragment of derma, of the spleen, of the liver and of the polyptic ganglion draining the lesion are set aside to determine the parasitic load in situ. As to the model of visceral leishmaniosis, the same protocol is carried out on the spleen and the liver. The parasitic load is expressed by the log10 of the number of parasites per gram of tissue.

[4] = test system: L. infantum; assay: in vivo anti-Leishmania activity, visceral model (L. infantum); set-up: species or system mice; conditions: L. infantum intravenous, MF 29 10 mg/kg intra-peritoneal once per day for 10 days, Glucantime subcutaneous
Protocol: as §1, §2

[5] = test system: tubuline of beef brain
Protocol: The anti-microtubular activity of MF 29 is also compared to that of MF 191 and to that of the vinblastine on the assembly of the tubulines of beef brain.
Experiments carried out to measure the capacity of in vitro polymerization of the tubuline were carried out with the help of a spectrophotometer provided with a circulating bath system at 37° C. and an automatic well loader permitting simultaneous measurement of several tests. The optical density which increases with polymerization of the assembly of the tubulines of the brain according to Lebanski et al., 1973, that is induced with the promoter MAP2 is measured at 345 nm every thirty seconds.

[6] = test system: Trypanosoma cruzi Peruvian strain
Protocol: The in vivo anti-Trypanosoma activity of MF 29 has also been studied. Mice were infected with Trypanosoma cruzi Peruvian strain by intravenous route. Four days post-infection, the mice are treated with MF 29 by intra-peritoneal route once per day in the amount of 10 mg/Kg for 10 days. The control group receives the solvent. The effectiveness of the treatment is evaluated by measuring parasitemia and followed by mortality.

[7] = test system: Plasmodium falciparum
Text: MF 29 has been evaluated in a test of inhibition of the proliferation of Plasmodium falciparum (mortal species) in an intra-erythrocytic model by measuring the incorporation of hypoxanthine.

[8] = test system: MRC5 line (normal tissue of fetal lung); conditions: times less for MRC5 line than on the parasite
Protocol: as §3

[9] = test system: promastigotes of L. mexicana; conditions: treatment for one hour at 5 μg/ml, sweeping electron microscope
[10] = test system: L. mexicana intracellular amastigote stage; assay: activity on the intracellular amastigote stage of L. mexicana in macrophages of Balb/c; conditions: times greater than GLUCANTIME
Protocol: as §3

## CCOC(=O)c1ccc(NC(=O)CCl)cc1 [GR 37, 4-chloroacetamido ethyl benzoate]
[1]
  in vitro anti-Leishmania activity (CI50 of Table 1 / FIG. 1, described in words): extraordinary activity
[2]
  cytotoxicity on mouse macrophages relative to the parasite: 1000 times

## CCOC(=O)c1ccccc1NC(=O)CCl [GR 38]
[1]
  in vitro anti-Leishmania activity (CI50 of Table 1 / FIG. 1, described in words): similar

## CCOC(=O)c1cccc(NC(=O)CCl)c1 [MF 29, 3-chloroacetamido ethyl benzoate]
[3]
  reduction of the hepatic parasitic load: 96%
  reduction of the polyptic ganglion parasitic load: 59%
  reduction of the spleen parasitic load: 97%
[4]
  reduction of the parasitic load in the liver: 25%
  reduction of the parasitic load in the spleen: 56%
[5]; 37° C., MAP2 promoter, FIG. 4C
  inhibition of polymerization of tubuline of beef brain: weak inhibitor
[5]; doubled concentration of the drug, FIG. 4D
  inhibition of polymerization of tubuline of beef brain at doubled concentration: significant inhibition
[6]; 10 mg/Kg intra-peritoneal once per day for 10 days, FIG. 5
  mortality: retardation in the curve of mortality
[6]; 20 mg/kg, preliminary results
  mortality: greater reduction of mortality
[6]; 8th day, versus control group, 10 mg/Kg intra-peritoneal
  reduction of the parasitic load: 70%
[6]; 8th day, 10 mg/Kg intra-peritoneal once per day for 10 days from four days post-infection
  parasitemia (load): 200 trypomastigotes per 50 fields
[6]; 10th day, 10 mg/Kg intra-peritoneal
  parasitemia versus control group: equivalent for the two groups
[7]; chloroquinine-sensitive strain (FCB1-Columbia)
  CI50: 0.1 µg/mL (≈ 0.414 µM)
[7]; strain (Nigerian strain) resistant to chloroquinine
  CI50: 0.1 µg/mL (≈ 0.414 µM)
[1]
  in vitro anti-Leishmania activity (CI50 of Table 1 / FIG. 1, described in words): high activity
[8]
  cytotoxicity for the MRC5 line relative to that obtained on the parasite: 400 times
[9]
  effect on the flagella: do not seem to be disturbed
  morphological changes of the cellular body: multiple pores
[10]
  activity in the amastigote form relative to GLUCANTIME: 300 times

## meglumine antimoniate [Glucantime, reference compound]
[3]
  reduction of the polyptic ganglion parasitic load: 44%
[4]
  reduction of the parasitic load in the liver: 30%
  reduction of the parasitic load in the spleen: 66%

From patent US20050165068A1, “Compounds, in particularly of urea derivatives or esters of haloacetamidobenzoic acid and use thereof for the treatment of parasitic diseases” (priority 2002, published 2005)
